A word on the IC50: it is the concentration that gives 50% inhibition. As usually defined, the LD50 is the dose at which mortality reaches 50%. A lower LD50 goes with greater toxicity. A word on the bioavailability: it is dose-corrected exposure relative to a reference, in per cent. In general, half-life refers to the time in which the quantity being followed falls by half.

Data set [1] deals with T1, acetylcholinesterase (AChE) (Electrophorus electricus, UniProt O42275).
T1 construct: purchased Sigma C2888
The data set can be described thus: biochemical. Particulars: room temperature, pH 8, acetylthiocholine iodide substrate; read-out: IC50, inhibition of AChE enzyme activity. The procedure:
Enzymatic assay. […] The purified/synthesized compounds or compound mixtures were tested. Assay kit was from Invitrogen. AChE enzyme was from Sigma or prepared from human erythrocyte. Acetylcholine and other reagents and buffers were from Sigma. The assay solution consisted of 0.1 M phosphate buffer pH 8, 0.5 mM 5,5′-dithiobis (2-nitrobenzoic acid) (DTNB, Ellman's reagent), 0.01 unit acetylcholinesterase (Sigma Cat. No. C2888), and 0.5 mM acetylthiocholine iodide (ATCI) as the substrate. Test compounds were added to the assay solution and pre-incubated with the enzyme for 5 min at room temperature before addition of the substrate. […] Duplicate sampling was made for each sample. Test compound inhibition to enzyme activity was calculated relative to the positive control without presence of test compound. Negative controls were samples without enzyme.
Experimental procedures were described in the embodiments of this invention.

Data set [2] is described as follows: Acute toxicity in mice (LD50). The conditions noted are these: both sexes, mouse, in vivo; CD-1 mice, dosed orally (PO), 7-day acute toxicity. The procedure: Animal toxicological tests. 7-day acute toxicity evaluation was done for selected compounds of this invention on mice and rats. Male and female CD-1 mice (25-30 grams) or SD rats (150-240 grams) were used. The animals were acclimated for 1 week prior to the experiment. The test compounds were dissolved in saline and were dosed orally (PO). Five groups (3 doses plus 1 vehicle and 1 naïve) and 10 mice per group (half male and half female) were used for each compound. All animals were fasted overnight before study. After dosing, animals were placed individually in soft-bedding cages without cage covers. Animal behavioral changes were continuously monitored for 4 hours including autonomic abnormalities (salivation, lacrimation, piloerection, yawning, palpebral closures), neuromuscular abnormalities (posture, gait, fasciculation, convulsions), stereotypical behaviors (sleep, alert, hyper/hypo-activity, slow patterned, fast patterned, restricted, dyskinetic-reactive signs etc.) and lethality. Observations for general health, mortality and moribundity were conducted twice daily after 24 hours. All animals surviving the 7-day observation period were sacrificed by carbon dioxide asphyxiation. Gross necropsies were performed on all animals sacrificed including examinations of main organs and tissue (lung, liver, kidney, heart, intestine, brain).
Acute toxicity for selected compounds of this invention was measured in mice according to the procedure illustrated in the embodiments. Male and female CD-1 mice (n=2-5/gender/compound dose, 25-32 grams) were from Shanghai Sino-British SIPPR/BK Lab Animal Ltd. Table 4 lists toxicology study observations for selected compounds.

Data set [3] can be described thus: in vivo. The conditions noted are these: male, Sprague-Dawley, plasma, rat. As for the experimental part: Pharmacokinetics (PK) measurement. […] A total of 6 male experimental SD rats, approximately 8 weeks of age (180-250 g body weight) were used. For intravenous bolus injection (IV), the animals were placed in a polycarbonate restraint device and dosed via the tail vein. For oral dose (PO), the animals were dosed via oral gavage. […] The plasma samples were extracted by protein precipitation using 4 volume of CH3CN containing fixed concentration of internal standard compound (IS). The concentrations of analyte in plasma were determined using a high performance liquid chromatography/mass spectrometry (HPLC/MS/MS) method (Shimadzu LC-10ADVP and a Leap autosampler, Thermo Hypersil C18, 50 mm×2.1 mm, Mobile phase A: 0.1% formic acid; B: MeCN, Elution rate: 500 μL/min, Column temperature: 25° C., Injection volume: 10 μL, reverse phase elution from 10% organic to 90% organic in 5 min, Applied Biosystems API3000 triple-quadrupole instrument with a Turbo Ions Spray interface). The data acquisition and data processing were done using Analyst 1.4 software.
Experimental animal used were male Sprague-Dawley rats from Shanghai Sino-British SIPPR/BK Lab Animal Ltd, approximately 8 weeks of age (180-250 g body weight).

The nature of data set [4]: in vivo. Particulars: male, Sprague-Dawley, plasma, rat, read-out: T½ (terminal half life) (converted).
[5] abbreviates: IV (intravenous), read-out: F (bioavailability).
The mark [6] stands for this setting: PO (oral), read-out: F (oral bioavailability).
Setting [7] is: SC (subcutaneous), read-out: F (bioavailability).

SMILES strings stand for the structures. Like-named read-outs stand apart in the source and are kept apart here. Bounds are passed on as bounds.

T1 sequence (O42275 24-633): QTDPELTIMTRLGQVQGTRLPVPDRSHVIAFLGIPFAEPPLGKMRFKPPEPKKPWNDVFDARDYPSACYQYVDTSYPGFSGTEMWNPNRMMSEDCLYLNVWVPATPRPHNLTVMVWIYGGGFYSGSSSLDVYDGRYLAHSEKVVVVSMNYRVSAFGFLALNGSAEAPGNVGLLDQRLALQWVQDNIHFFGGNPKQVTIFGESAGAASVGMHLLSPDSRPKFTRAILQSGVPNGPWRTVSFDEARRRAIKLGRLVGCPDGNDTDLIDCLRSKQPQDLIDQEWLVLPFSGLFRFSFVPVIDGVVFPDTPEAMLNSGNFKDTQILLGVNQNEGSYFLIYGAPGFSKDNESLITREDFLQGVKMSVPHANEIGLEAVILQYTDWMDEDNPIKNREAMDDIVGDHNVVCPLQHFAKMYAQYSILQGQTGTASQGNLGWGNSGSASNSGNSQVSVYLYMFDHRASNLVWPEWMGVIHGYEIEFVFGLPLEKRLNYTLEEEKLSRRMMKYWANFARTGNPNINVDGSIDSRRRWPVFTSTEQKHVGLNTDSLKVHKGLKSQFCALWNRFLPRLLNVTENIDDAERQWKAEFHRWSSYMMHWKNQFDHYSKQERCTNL

With `COc1cc2c(cc1OC)C(=O)C(CC1(F)CCN(Cc3ccccc3)CC1)C2` (stereo not drawn) [IV-4, 2-((1-benzyl-4-fluoropiperidin-4-yl)methyl)-5,6-dimethoxy-2,3-dihydro-1H-inden-1-one], the IC50 in data set [1] is 1.04 nM. The molecule also registered a 50% lethal dose (LD50) at 7 day in data set [2] of 30 mg/kg.
On to `COc1cc2c(cc1OC)C(=O)C(F)(CC1(F)CCN(Cc3ccc(F)cc3)CC1)C2` (stereo not drawn) [IV-11, 2-fluoro-2-((4-fluoro-1-(4-fluorobenzyl)piperidin-4-yl)methyl)-5,6-dimethoxy-2,3-dihydro-1H-inden-1-one], for which the concentration for half-maximal inhibition (IC50) in data set [1] was determined as 28.2 nM. The bioavailability is 100% in data set [3] (setting [5]), 28.2% in data set [3] (setting [6]) and 100% in data set [3] (setting [7]). Besides, the LD50 at 7 day in data set [2] was above 50 mg/kg. The half-life is 3.1 h in data set [4] (IV (intravenous)), 11.8 h in data set [4] (PO (oral)) and 7.9 h in data set [4] (SC (subcutaneous)).
For `COc1cc2c(cc1OC)C(=O)C(F)(CC1(F)CCN(Cc3ccccc3)CC1)C2` (stereo not drawn) [IV-8, 2-((1-benzyl-4-fluoropiperidin-4-yl)methyl)-2-fluoro-5,6-dimethoxy-2,3-dihydro-1H-inden-1-one], the half-inhibitory concentration (IC50) in data set [1] was 9.07 nM. Besides, the bioavailability is 100% in data set [3] (setting [5]), 37.2% in data set [3] (setting [6]) and 70.5% in data set [3] (setting [7]). This molecule had an LD50 at 7 day in data set [2] above 45 mg/kg. The values for the half-life in data set [4] (IV (intravenous)), in data set [4] (PO (oral)) and in data set [4] (SC (subcutaneous)) were 8.5 h, 12.7 h and 6.8 h, respectively.

For the origin of these results see patent publication US9249098B2 (priority 2012, dated 2016).
